Measured values taken from patent publication US10039838B2, “Car peptide for homing, diagnosis and targeted therapy for pulmonary and fibrotic disorders” (Vascular BioSciences, priority 2010, dated 2018).
“Also recorded” adds a separate entry of the source. Primed or numbered codes have the meaning given here. Where no end group is shown, it is not given here. The star is where a group is joined. 5FAM = O=C1OC2(c3ccc(O)cc3Oc3cc(O)ccc32)c2ccc(C(=O)*)cc21; 5FAM′ = not defined here

Tests used:
[1] = test system: severe occlusive PAH rat model; experiment: Blood pressure tracing, fasudil with CARK; assay type: in vivo
Method: (§1) Severe occlusive PAH rat model was used. Animals were injected with SU5416 (20 mg/kg; SUGEN Inc), followed by 3 weeks hypoxia, then followed by 2-10 weeks normoxia.
The peptide administered was a 7 amino acid variant to the CAR peptide used in previous examples. This variant (CARK) consisted of the following sequence: CARSKNK (SEQ ID NO: 2). In these experiments, CARK was administered at a dose of 3 mg/kg and fasudil administered at 1 mg/kg.
To measure the acute effects of fasudil with CARK administration on the right and left ventricular systolic pressure (or systolic aortic pressure), blood pressure measurements were performed on catheterized SU5w/hypoxia/normoxia-exposed rats with PAH.

[2] = test system: mouse lungs after bleomycin injection; experiment: Peptide targeting study in bleomycin-induced acute lung injury and pulmonary fibrosis model, immunohistochemistry; assay type: in vivo; details: for Distribution of staining in mouse lungs, acute lung injury model / Distribution of staining in mouse lungs, pulmonary fibrosis model: peptide 3.3 mg/kg via tail vein, 2 hours; for Distribution of staining in mouse lungs, pulmonary fibrosis model: 14 days after bleomycin injection, FIGS. 15-17
Method: A mouse model of bleomycin induced acute lung injury and pulmonary fibrosis was used for this study. Briefly, 6 WT C57Bl/6 male mice, 8-12 weeks were weighed and anesthetized, and given bleomycin (BL) intratracheally at 4 U/kg. At 3 days (acute lung injury model) and 14 days (pulmonary fibrosis model) after BL injection, peptides were injected via the tail vein.
(§2) The following peptides were labeled with 5-carboxyfluorescein (5FAM) and used for the lung targeting studies: CAR, 5FAM-CARSKNKDC; VCAM1, CVHSPNKKCGGSK-5FAM; Control, 5FAM-CGGGGGGGC. All peptides were synthesized by Anaspec (Anaspec Inc., CA). Peptides were resolved in PBS at the concentrations of 0.5 mg/mL.
BL-treated mice were injected with peptide solution at a dose of 3.3 mg/kg body weight via the tail vein. At two hours after the injection, mice were perfused with PBS containing 1% bovine serum albumin under the deep anesthesia with isofluorane at a rate of 3.0% and euthanized. Tissues were fixed by systemic perfusion with 10% buffered formalin via right ventricle. The lung was inflated by injection of 10% formalin through the trachea. Various organs were excised from the rat and fixed for additional twenty four hours and processed for immunohistochemistry.
(§3) To determine the localization of the peptides, paraffin-embedded tissue sections were immunostained with rabbit anti-fluoroscein isothiocyanate (FITC) antibody (Invitrogen, CA) followed by horseradish peroxidase-labeled anti-rabbit IgG secondary antibody. The peptide localization was then visualized by diaminobenzidine (DAB). An automated staining system, Discovery XT (Ventana, Ariz.) was used. To quantify the targeting efficiency of the peptides to the lung, the immunostained sections were scanned by Aperio Scanscope XT and analyzed using ImageScope software (Aperio Technologies, CA) (FIGS. 14-17).

[3] = test system: severe occlusive PAH rat model; experiment: Blood pressure tracing, imatinib with CAR; assay type: in vivo; details: CAR 3 mg/kg + imatinib 10 mg/kg, FIG. 25
Method: as §1
The peptide administered was CAR, CARSKNKDC (SEQ ID NO: 1). In this experiment, CAR was administered at a dose of 3 mg/kg and imatinib administered at 10 mg/kg.
To measure the acute effects of imatinib with CAR administration on the right and left ventricular systolic pressure, blood pressure measurements were performed on catheterized SU5w/hypoxia/normoxia-exposed rats with PAH.

[4] = test system: cell surface heparan sulfate and heparin; details: US 20090036349; Jarvinen and Ruoslahti 2007; cited from earlier work
[5] = test system: MCT induced hypertensive rat lung; experiment: Peptide targeting study in monocrotaline (MCT)-induced pulmonary arterial hypertension, immunohistochemistry; assay type: in vivo; details: peptide 3.3 mg/kg via tail vein, 2 hours after injection, FIG. 4
Method: A rat model of monocrotaline (MCT)-induced pulmonary arterial hypertension was used for this study. Briefly, male Sprague-Dawley rats (150-200 g, Harlan Laboratories, IN) were administered with a single subcutaneous injection of monocrotaline at 60 mg/kg (Sigma-Aldrich, MO), while control rats were administered 0.9% saline (FIG. 1). Rats were randomly selected and studied for peptide distribution studies on 1, 3, 7, 14 or 21 days after the treatment of monocrotaline.
as §2
MCT-treated or untreated rats were injected with peptide solution at a dose of 3.3 mg/kg body weight via the tail vein. […]
as §3, with “with either hematoxylin and eosin (FIGS. 2-3) or” for “with”, “antibody (FIG. 4). […]” for “antibody. The peptide localization was then visualized by diaminobenzidine (DAB). An automated staining system, Discovery XT (Ventana, Ariz.) was used.”, “CA).” for “CA) (FIGS. 14-17).”

[6] = 3 days after bleomycin injection, FIG. 14

For CARSKNK [CARK], the “Effect of CARK co-administration with fasudil on systolic aortic pressure (SAP)” value ([1]; CARK 3 mg/kg + fasudil 1 mg/kg, compared to fasudil alone, FIG. 22) was “only a minor reduction in SAP”, the “Effect of CARK co-administration with fasudil on LVSP” value ([1]; CARK 3 mg/kg + fasudil 1 mg/kg, compared to fasudil alone, FIG. 23) was “only a minor reduction” and the “Effect of CARK co-administration on RVSP lowering by fasudil” value ([1]; CARK 3 mg/kg + fasudil 1 mg/kg, compared to fasudil alone, FIGS. 22-23) was “enhanced the blood pressure lowering effect of fasudil on RVSP”. The “Effect on RVSP and LVSP of fasudil administered after cessation of CARK infusion” value ([1]; fasudil 10 mg/kg 30 minutes after cessation of CARK infusion, FIG. 24) was “sustained, pulmonary-specific effect”.

With CARSKNKDC the “Staining intensity of CAR compared with VCAM1, acute lung injury model” value [2, 6] was “more intense”, the “Distribution of staining in mouse lungs, acute lung injury model” value [2, 6] was “stain the interstitium and inflammatory cells” and the “Distribution of staining in mouse lungs, pulmonary fibrosis model” value [2] was “Interstitial and inflammatory staining is seen in areas of lung fibrosis; also recorded: areas of dense fibrosis and spared areas showing little staining”. The “Effect of CAR co-administration on RVSP lowering by imatinib” value [3] was “enhanced the blood pressure lowering effect of imatinib on RVSP”, the “Effect of CAR co-administration with imatinib on LVSP” value [3] was “only a minor reduction in LVSP” and the “Binding to cell surface heparan sulfate and heparin” value [4] was “binds to cell surface heparan sulfate and heparin”.

With “5FAM-CARSKNKDC (cysteine pairing not given here) [CAR-FITC, CAR peptide labeled with 5-carboxyfluorescein, detected with anti-FITC antibody]” the “CAR-FITC staining of alveolar macrophages” value [5] was “alveolar macrophages take up the stain”.

In the case of “CVHSPNKKCGGSK-5FAM (CVHSPNKKCGGSK-{5FAM′}; cysteine pairing not given here) [VCAM1, reference compound]”, the “Distribution of staining in mouse lungs, acute lung injury model” value [2, 6] is reported as “stain the interstitium and inflammatory cells” and the “Distribution of staining in mouse lungs, pulmonary fibrosis model” value [2] is reported as “areas of mild fibrosis and spared areas showing little staining”.
